The text below walks through data of the ASAP Discovery antiviral challenge data (2025).

The conditions of series [1]: human; liver_microsomes.
The conditions of series [2]: mdck_mdr1.
Assay in series [3]: not given
The source holds these as a separate data set.

For series [4] the following is noted: mouse; liver_microsomes.

Values after ≈ are worked out from the molar mass of the structure shown.

As for `CC(C)CNC(=O)c1cc(Cl)c(F)cc1NS(=O)(=O)c1ccc(Oc2ccccc2Cl)cc1`, the kinetic solubility is 4 µM (≈ 2.05 µg/mL). The molecule also showed a microsomal CLint in series [1] of 198 µL/min/mg. In series [2], this molecule showed a Papp of 2.39 ×10⁻⁶ cm/s.
The molecule `CCOc1cccc(-c2ccc(S(=O)(=O)Nc3ccc(Cl)cc3C(=O)O)cc2)c1` showed a solubility (kinetic) of 392 µM (≈ 169 µg/mL). Further, the microsomal CLint in series [1] worked out at 119 µL/min/mg. Besides, the logD in series [3] is 2.8. The molecule further displayed a Papp in series [2] of 6.22 ×10⁻⁶ cm/s.
`Cc1c(C(=O)Nc2cc(-c3cccnc3)ccn2)cc(C2CC2)n1C` displayed a kinetic solubility of 176 µM (≈ 58.5 µg/mL). Besides, the microsomal CLint in series [4] came to 388 µL/min/mg. In series [2], the Papp was 13.5 ×10⁻⁶ cm/s.
Molecule `Cc1cc(OCc2ccccc2)ccc1NS(=O)(=O)c1ccc(Cl)cc1C(=O)O` gave a solubility (kinetic) of 394 µM (≈ 170 µg/mL). The molecule further gave an intrinsic metabolic clearance (microsomal CLint) in series [1] of 22.3 µL/min/mg. The molecule also came in with a logD in series [3] of 2.7. The molecule also gave an apparent permeability coefficient (Papp) in series [2] of 4.61 ×10⁻⁶ cm/s.
In the same order, the values of `NCCc1ccc(NC(=O)c2cc(Cl)cc(NC(=O)OCc3ccccc3)c2)cc1` are 88 µM (≈ 37.3 µg/mL), 17.5 µL/min/mg, 2.9 and 0.791 ×10⁻⁶ cm/s.
For `NCc1cccc(NC(=O)CN(C(=O)OCc2ccccc2)c2ccc(OCc3ccccc3)cc2)c1`, in that order: 56 µM (≈ 27.8 µg/mL), 11 µL/min/mg, 2.9 and 0.899 ×10⁻⁶ cm/s.
`NCc1cccc(NC(=O)c2cc(Cl)cc(CN)c2)c1` displayed a kinetic solubility of 375 µM (≈ 109 µg/mL). In series [1], the microsomal CLint stood at 21 µL/min/mg. Also, the logD in series [3] was -0.6. Further, in series [2], the apparent permeability (Papp) came to 1.96 ×10⁻⁶ cm/s.
Consider `NCc1cccc(NC(=O)c2cc(OCc3ccccc3)ccc2CNC(=O)OCc2ccccc2)c1`, for which the solubility (kinetic) worked out at 14 µM (≈ 6.94 µg/mL). Besides, in series [1], the microsomal CLint turned out to be 21 µL/min/mg. This molecule returned a logD in series [3] of 2.8. The molecule further returned a Papp in series [2] of 1.75 ×10⁻⁶ cm/s.
The molecule `Nc1nc(-c2ccccc2)nc2[nH]nc(Nc3ccc(C(F)(F)F)cc3)c12` returned a solubility (kinetic) of 2 µM (≈ 0.741 µg/mL). Also, the microsomal CLint in series [4] came to 11.2 µL/min/mg. This molecule also came in with a Papp in series [2] of 1.76 ×10⁻⁶ cm/s.
The molecule `O=C(NCC(F)(F)F)c1cc(Cl)c(F)cc1NS(=O)(=O)c1ccc(Oc2ccccc2Cl)cc1` returned a kinetic solubility of 14 µM (≈ 7.52 µg/mL). In series [1], this molecule displayed a microsomal CLint of 70 µL/min/mg. Moreover, the Papp in series [2] is 2.4 ×10⁻⁶ cm/s.
Molecule `O=C(Nc1cc(Cl)cc(C(=O)Nc2ccc3c(c2)CNC3)c1)OCc1ccccc1` gave a solubility (kinetic) of 35 µM (≈ 14.8 µg/mL). In series [1], the microsomal CLint is 12.7 µL/min/mg. Moreover, in series [3], the logD is 2.8. Further, the Papp in series [2] was found to be 1.25 ×10⁻⁶ cm/s.
In the same order, the values of `O=C(Nc1cc(Cl)cc(C(=O)Nc2cccc(-n3nn[nH]c3=O)c2)c1)OCc1ccccc1` are 107 µM (≈ 49.7 µg/mL), 11.2 µL/min/mg, 3.8 and 9.46 ×10⁻⁶ cm/s.
`O=C(Nc1ccc2c(c1)CNC2)c1cc(F)cc2[nH]ncc12`: the microsomal CLint in series [4] worked out at 180 µL/min/mg. For the same molecule, the apparent permeability (Papp) in series [2] worked out at 1.59 ×10⁻⁶ cm/s.
`O=C(O)c1cc(Cl)c(F)cc1S(=O)(=O)Nc1ccc(Oc2ccccc2Cl)cc1` registered a solubility (kinetic) of 396 µM (≈ 181 µg/mL). In series [1], this molecule showed a microsomal CLint of 67.4 µL/min/mg. This molecule registered a logD in series [3] of 3.3. Further, the Papp in series [2] amounted to 4.29 ×10⁻⁶ cm/s.
In the same order, the values of `O=C(O)c1cc(Cl)ccc1NS(=O)(=O)c1ccc(-c2ccccc2Cl)cc1` are 397 µM (≈ 168 µg/mL), 343 µL/min/mg, 3.6 and 7.59 ×10⁻⁶ cm/s.
Molecule `O=C(O)c1cc(Cl)ccc1S(=O)(=O)NC1CCN(c2nc(C3CC3)cc(C(F)(F)F)n2)CC1` displayed a kinetic solubility of 380 µM (≈ 192 µg/mL). The intrinsic clearance (microsomal CLint) in series [1] is 26.3 µL/min/mg. Besides, the logD in series [3] was found to be 2.8. Moreover, the Papp in series [2] was found to be 3.65 ×10⁻⁶ cm/s.
`c1ccc2c(CN3CCC(c4c[nH]c5cccnc45)CC3)c[nH]c2c1` showed a microsomal CLint in series [1] of 16 µL/min/mg. The same molecule returned a Papp in series [2] of 4.6 ×10⁻⁶ cm/s.
`c1ccc2sc(C3CCN(Cc4c[nH]c5ccccc45)CC3)nc2c1` displayed a kinetic solubility of 119 µM (≈ 41.4 µg/mL). Also, the microsomal CLint in series [1] is 38.1 µL/min/mg. In addition, the Papp in series [2] stood at 5.82 ×10⁻⁶ cm/s.
As for `C=CC[C@H](Nc1ccc(-c2nn[nH]n2)cc1)c1cc(Cl)cc(NC(=O)OCc2ccccc2)c1` (racemic), the microsomal CLint in series [1] turned out to be 10.1 µL/min/mg. In series [3], this molecule gave a logD of 3.9. The molecule also came in with a Papp in series [2] of 2.6 ×10⁻⁶ cm/s.
`C=CC[C@H](Nc1cccc(-c2nn[nH]n2)c1)c1cc(Cl)cc(NC(=O)OCc2ccccc2)c1` (racemic) came in with a solubility (kinetic) of 332 µM (≈ 158 µg/mL). Further, in series [1], the microsomal CLint stood at 65.5 µL/min/mg. Besides, the logD in series [3] was 4.1. In series [2], this molecule had a Papp of 1.24 ×10⁻⁶ cm/s.
Take `CC(C)NC(=O)[C@H](Nc1ccc2c(c1)CNC2)c1cc(Cl)cc2[nH]c(-c3ccccc3)nc12` (racemic): the solubility (kinetic) came out at 154 µM (≈ 70.8 µg/mL). In series [1], this molecule yielded a microsomal CLint of 23.2 µL/min/mg. This molecule also came in with a log distribution coefficient (logD) in series [3] of 2.9. For the same molecule, the Papp in series [2] amounted to 0.432 ×10⁻⁶ cm/s.

As a reminder, the microsomal CLint is a measure of how fast metabolising enzymes remove a compound, apart from limits set by blood flow. High values mean rapid turnover, low ones slow turnover. A word on the solubility (kinetic): it is solubility judged after dilution from a stock solution rather than from solid. The term Papp denotes the rate of passage across a membrane or cell layer, normalised by area and donor concentration. By logD is commonly meant the decadic logarithm of the distribution of all forms, ionised or not, between an organic phase and buffer at a given pH. Low readings indicate a more hydrophilic compound, high ones a more lipophilic compound.
